This passage reports outcome and inhibition results from PubChem BioAssay AID1794804 (Yongcheng Song lab at Baylor College of Medicine, 2022).

The structures appear in SMILES notation. The source made the active and inactive calls.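 The calls were made as follows: active = inhibition above 55% when tested at 5 µM; inactive = the rest.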

In the first test the target is Protein AF-9 (Homo sapiens) (UniProt P42568). As to the kind of experiment: single-concentration AF9–DOT1L binding disruption – biochemical, AlphaLISA, percent inhibition, MBP-tagged AHD (AID 1794804). To be noted: MBP-AF9 AHD / biotin-DOT1L peptide binding. (In general: In Alpha technology, singlet oxygen from a donor bead excites a nearby acceptor bead.)
Protein AF-9 (Homo sapiens), sequence (P42568 whole entry, looked up): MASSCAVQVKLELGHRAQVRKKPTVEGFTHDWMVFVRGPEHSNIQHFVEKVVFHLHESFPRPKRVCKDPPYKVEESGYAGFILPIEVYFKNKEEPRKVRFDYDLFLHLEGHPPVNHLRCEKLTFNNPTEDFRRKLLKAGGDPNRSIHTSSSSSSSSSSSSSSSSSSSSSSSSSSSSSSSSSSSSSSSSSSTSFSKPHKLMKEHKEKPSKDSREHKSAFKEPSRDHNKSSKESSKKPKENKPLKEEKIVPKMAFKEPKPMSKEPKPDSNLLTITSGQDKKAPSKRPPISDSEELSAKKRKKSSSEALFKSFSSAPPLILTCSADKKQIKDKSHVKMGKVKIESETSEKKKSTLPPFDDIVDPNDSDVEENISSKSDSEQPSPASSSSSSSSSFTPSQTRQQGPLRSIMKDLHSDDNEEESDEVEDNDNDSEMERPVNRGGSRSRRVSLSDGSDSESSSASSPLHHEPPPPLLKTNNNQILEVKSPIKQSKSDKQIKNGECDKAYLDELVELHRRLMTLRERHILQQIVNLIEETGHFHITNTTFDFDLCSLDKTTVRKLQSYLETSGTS
In the case of `O=C(NCC1CCNCC1)c1cc2ccc(-c3cccc(-c4ccccc4)c3)cc2o1`, the outcome was inactive. Consider `O=C(NCC1CCNCC1)c1cc2ccc(-c3ccc(CCO)cc3)cc2[nH]1`, for which the outcome was inactive. For `O=C(NCC1CCNCC1)c1cc2ccc(-c3ccc(C4CCCCC4)cc3)cc2o1`, the outcome was inactive. On the same count and under the same terms, with `CC(C)(C)c1ccc(-c2ccc3sc(C(=O)NCC4CCNCC4)cc3c2)cc1` the entry was “inactive”. Turning to `O=C(NCC1CCNCC1)c1cc2ccc(-c3ccc(N4CCNCC4)cc3)cc2[nH]1`, the outcome was inactive.

As for `CC(C)(C)c1ccc(-c2ccc3cc(C(=O)NCC4CCNCC4)sc3c2)cc1`, the outcome was inactive. For `N#Cc1ccc(-c2ccc3sc(C(=O)NCC4CCNCC4)cc3c2)cc1`, the outcome was inactive. As to `N#Cc1ccc(-c2ccc3cc(C(=O)NCC4CCNCC4)oc3c2)cc1`, the outcome was inactive.

Staying with this test, now noted: MBP-AF9 AHD / biotin-DOT1L peptide binding, at 5 µM, stronger effect = higher value.
The inhibition is the relative decrease from the control value, in per cent. Consider `O=C(NCC1CCNCC1)c1cc2cc(-c3ccc(-c4ccsc4)cc3)ccc2[nH]1`, for which the inhibition is 14% (inactive). For the molecule `N#Cc1ccc(-c2ccc3[nH]c(C(=O)NCC4CCNCC4)cc3c2)cc1F`, the inhibition is 8% (inactive). On to `NCc1ccc(-c2ccc3cc(C(=O)NCC4CCNCC4)[nH]c3c2)cc1`, for which the inhibition was 11% (inactive). As for `NC(=O)c1ccc(-c2ccc3cc(C(=O)NCC4CCNCC4)sc3c2)cc1`, the inhibition was 0% (inactive). For `O=C(NCC1CCNCC1)c1cc2ccc(-c3ccc(CO)cc3)cc2s1`, the inhibition is 0% (inactive).

Regarding `O=C(NCC1CCNCC1)c1cc2ccc(-c3ccc(C(=O)N4CCCC4)cc3)cc2s1`, the inhibition is 0% (inactive). Consider `O=C(NCC1CCNCC1)c1cc2ccc(-c3ccc(C(=O)N4CCCCC4)cc3)cc2o1`, for which the inhibition was 0% (inactive). On to `O=C(NCC1CCNCC1)c1cc2ccc(-c3ccc(F)cc3)cc2s1`, for which the inhibition is 21% (inactive).

Take `Cc1ccc(-c2ccc3cc(C(=O)NCC4CCNCC4)sc3c2)cc1`: the inhibition was 47% (inactive). On to `CC(C)(C)c1ccc(Nc2ccc3sc(C(=O)NCC4CCNCC4)cc3c2)cc1`, for which the inhibition is 45% (inactive). On the same count and under the same terms, with `Cc1cc(C#N)ccc1-c1ccc2[nH]c(C(=O)NCC3CCNCC3)cc2c1` the figure was 0% (inactive); with `O=C(NCC1CCNCC1)c1cc2cc(-c3ccc(C(=O)N4CCCCC4)cc3)ccc2s1`, 31% (inactive). For the molecule `O=C(NCC1CCNCC1)c1cc2ccc(-c3ccsc3)cc2[nH]1`, the inhibition is 10% (inactive). The same measure, in the same setting: with `O=C(NCC1CCNCC1)c1cc2ccc(-c3ccc(N4CCOCC4)cc3)cc2o1` the figure was 40% (inactive); with `O=C(NCC1CCNCC1)c1cc2ccc(Nc3ccc(N4CCCCC4)cc3)cc2o1`, 93%; with `O=C(NCC1CCNCC1)c1cc2ccc(-c3ccc(C(=O)N4CCC(N5CCCCC5)CC4)cc3)cc2o1`, 0% (inactive). As for `N#Cc1ccc(-c2ccc3cc(C(=O)NCC4CCNCC4)sc3c2)cc1F`, the inhibition was 26% (inactive). On the same count and under the same terms, with `O=C(NCC1CCNCC1)c1cc2ccc(Nc3ccc(OC(F)(F)F)cc3)cc2o1` the figure was 23% (inactive). In the case of `O=C(NCC1CCNCC1)c1cc2ccc(N3CCC(N4CCCCC4)CC3)cc2s1`, the inhibition is 14% (inactive).

For the molecule `COc1ccc(Oc2ccc3cc(C(=O)NCC4CCNCC4)oc3c2)cc1`, the inhibition is 24% (inactive). Same read-out and setting: for `O=C(NCC1CCNCC1)c1cc2cc(-c3ccc(N4CCNCC4)cc3)ccc2[nH]1` the value was 36% (inactive); for `O=C(NCC1CCNCC1)c1cc2ccc(-c3ccc(-c4ccccc4)cc3)cc2o1`, 0% (inactive); for `O=C(NCC1CCNCC1)c1cc2cc(-c3ccc(C(=O)N4CCCC4)cc3)ccc2s1`, 0% (inactive). For `O=C(NCC1CCNCC1)c1cc2ccc(-c3ccc(Cl)cc3)cc2s1`, the inhibition was 50% (inactive). As to `O=C(NCC1CCNCC1)c1cc2cc(-c3ccc(N4CCOCC4)cc3)ccc2[nH]1`, the inhibition was 52% (inactive).

As to `O=C(NCC1CCNCC1)c1cc2ccc(-c3ccc(N4CCOCC4)cc3)cc2[nH]1`, the inhibition is 29% (inactive). For the molecule `O=C(NCC1CCNCC1)c1cc2ccc(-c3ccc(O)cc3)cc2s1`, the inhibition was 0% (inactive). For the molecule `O=C(NCC1CCNCC1)c1cc2ccc(-c3ccc(C(=O)N4CCCC4)cc3)cc2o1`, the inhibition was 1% (inactive).

As to `CC(C)(C)c1ccc(-c2ccc3[nH]c(C(=O)NCC4CCNCC4)cc3c2)cc1`, the inhibition is 13% (inactive).

Take `CCN(CC)c1ccc(-c2ccc3cc(C(=O)NCC4CCNCC4)sc3c2)cc1`: the inhibition was 25% (inactive). With `CC(=O)Nc1ccc(-c2ccc3cc(C(=O)NCC4CCNCC4)sc3c2)cc1`, the inhibition is 0% (inactive). For `CS(=O)(=O)c1ccc(-c2ccc3cc(C(=O)NCC4CCNCC4)sc3c2)cc1`, the inhibition is 49% (inactive). The same measure, in the same setting: with `CN1CCN(c2ccc(-c3ccc4cc(C(=O)NCC5CCNCC5)oc4c3)cc2)CC1` the figure was 32% (inactive); with `O=C(NCC1CCNCC1)c1cc2ccc(-c3ccc(N4CCOCC4)cc3)cc2s1`, 40% (inactive); with `O=C(NCC1CCNCC1)c1cc2ccc(Oc3ccc(Oc4ccc(Cl)cc4)cc3)cc2s1`, 50% (inactive). As to `N#CCc1ccc(-c2ccc3cc(C(=O)NCC4CCNCC4)sc3c2)cc1`, the inhibition was 50% (inactive). With `O=C(NCC1CCNCC1)c1cc2ccc(-c3ccc(C(=O)N4CCCCCC4)cc3)cc2o1`, the inhibition was 0% (inactive).

Turning to `O=C(NCC1CCNCC1)c1cc2ccc(-c3ccc(C(=O)N4CCC(N5CCCC5)CC4)cc3)cc2s1`, the inhibition was 5% (inactive). Same read-out and setting: with `O=C(NCC1CCNCC1)c1cc2ccc(-c3ccc(C(=O)N4CCC(N5CCCCC5)CC4)cc3)cc2s1` the figure was 0% (inactive). On the same count and under the same terms, for `CC(C)(C)c1cccc(-c2ccc3cc(C(=O)NCC4CCNCC4)[nH]c3c2)c1` the value was 17% (inactive).

For `O=C(NCC1CCNCC1)c1cc2ccc(-c3ccc(C(=O)N4CCCCC4)cc3)cc2s1`, the inhibition was 8% (inactive). As to `CCN(CC)c1ccc(-c2ccc3cc(C(=O)NCC4CCNCC4)oc3c2)cc1`, the inhibition is 30% (inactive). `O=C(NCC1CCNCC1)c1cc2cc(Nc3ccc(OC(F)(F)F)cc3)ccc2s1`: the inhibition was 24% (inactive). In the case of `O=C(NCC1CCNCC1)c1cc2ccc(-c3ccc(C4CCCCC4)cc3)cc2[nH]1`, the inhibition is 31% (inactive). In the case of `N#Cc1cccc(-c2ccc3cc(C(=O)NCC4CCNCC4)[nH]c3c2)c1`, the inhibition is 0% (inactive). In the case of `O=C(NCC1CCNCC1)c1coc2cc(-c3ccc(N4CCCCC4)cc3)ccc12`, the inhibition is 59%.

For `O=C(NCC1CCNCC1)c1cc2ccc(-c3ccc(N4CCNCC4)cc3)cc2o1`, the inhibition was 38% (inactive). For `O=C(NCC1CCNCC1)c1cc2ccc(-c3ccc4c(c3)OCCO4)cc2o1`, the inhibition was 33% (inactive). As to `O=C(NCC1CCNCC1)c1cc2ccc(-c3ccc(OC(F)(F)F)cc3)cc2s1`, the inhibition was 14% (inactive).

With `O=C(NCc1ccc(-c2ccc3cc(C(=O)NCC4CCNCC4)oc3c2)cc1)OCc1ccccc1`, the inhibition was 27% (inactive). On to `CC(=O)c1ccc(-c2ccc3cc(C(=O)NCC4CCNCC4)[nH]c3c2)cc1`, for which the inhibition is 37% (inactive). Consider `CS(=O)(=O)c1ccc(-c2ccc3cc(C(=O)NCC4CCNCC4)oc3c2)cc1`, for which the inhibition is 19% (inactive).

With `COc1ccc(-c2ccc3cc(C(=O)NCC4CCNCC4)sc3c2)cc1`, the inhibition was 43% (inactive). For `O=C(NCC1CCNCC1)c1cc2ccc(N3CCC(N4CCCC4)CC3)cc2s1`, the inhibition is 20% (inactive). Turning to `O=C(NCC1CCNCC1)c1cc2ccc(Oc3ccc(Oc4ccc(Cl)cc4)cc3)cc2o1`, the inhibition was 20% (inactive).

Consider `O=C(NCC1CCNCC1)c1c[nH]c2ccc(-c3ccc(N4CCCCC4)cc3)cc12`, for which the inhibition was 43% (inactive).

As for `O=C(NCC1CCNCC1)c1cc2ccc(-c3ccc(CN4CCCCC4)cc3)cc2s1`, the inhibition was 45% (inactive).

The same test, now with this note: MBP-AF9 AHD / biotin-DOT1L peptide binding, inhibition, at 20 µM, stronger effect = higher value.
`O=C(NCC1CCNCC1)c1cc2ccc(-c3cccc(-c4ccccc4)c3)cc2o1` displayed an inhibition of 49%. Molecule `O=C(NCC1CCNCC1)c1cc2ccc(-c3ccc(CCO)cc3)cc2[nH]1` showed an inhibition of 22%. On the same count and under the same terms, with `O=C(NCC1CCNCC1)c1cc2ccc(-c3ccc(C4CCCCC4)cc3)cc2o1` the figure was 54%; with `CC(C)(C)c1ccc(-c2ccc3sc(C(=O)NCC4CCNCC4)cc3c2)cc1`, 59%. `O=C(NCC1CCNCC1)c1cc2ccc(-c3ccc(N4CCNCC4)cc3)cc2[nH]1` showed an inhibition of 48%. Still for that read-out and setting: with `CC(C)(C)c1ccc(-c2ccc3cc(C(=O)NCC4CCNCC4)sc3c2)cc1` the figure was 70%. Take `N#Cc1ccc(-c2ccc3sc(C(=O)NCC4CCNCC4)cc3c2)cc1`: the inhibition came to 30%. As to `N#Cc1ccc(-c2ccc3cc(C(=O)NCC4CCNCC4)oc3c2)cc1`, the inhibition worked out at 38%.
